Test results reported in patent publication US20210137850A1, “DIAGNOSIS & TREATMENT OF ERCC3-MUTANT CANCER” (MEMORIAL SLOAN KETTERING CANCER CENTER, priority 2017, published 2021).

Assays:
[1] = tested on: R109X H-RAS-V12 HMLE cells vs WT H-RAS-V12 HMLE cells; assay: Cell viability after Irofulven, hRAS-V12 expressing ERCC3 WT vs R109X HMLE cells; type: cell-based, human; conditions: 72 hours, increasing doses, hRAS-V12 HMLE R109X heterozygous
Description: (§1) For viability assessment following treatment with IlludinS (Cayman Chemical), cells were seeded into 96 well plates 24 hours prior to treatment. For post-UV viability assays, cells were exposed to the appropriate doses of UV irradiation and subsequently seeded into 96 well plates. Cell viability was measured after 72 hours using the CellTiter-Glo® Luminescent Cell Viability Assay (Promega).
(§2) In vitro experiments were performed to compare the effects of Irofulven on cell viability of ERCC3 WT HMLE cells and CRISPR-edited HMLE cells heterozygous for the ERCC3 R109X mutation. These same cell lines were used in Example 1 to assess sensitivity to IlludinS. Cell viability was assessed 72 hours following treatment of the cells with increasing doses of Irofulven. FIG. 11A provides the results in graphical form. Similar experiments were also performed using cells similar to those described above (i.e. that were either ERCC3 WT or R109X) but that also stably expressed mutant hRAS-V12. (These hRAS-V12 cells were used for xenograft generation in the in vivo experiments described below). FIG. 11B provides results showing the effects of Irofulven on cell viability of the +/+WT H-RAS-V12 HMLE cells the heterozygous+/−R109X H-RAS-V12 HMLE cells. The data shown in both FIG. 11A and FIG. 11B represents the mean of three experiments with error bars representing the SEM.

[2] = tested on: ERCC3 expression in ERCC3 mutant tumors; assay: Real time PCR of ERCC3 transcript in xenograft tumors; type: in vivo, athymic nude mice; conditions: two treatment cycles of Irofulven
[3] = tested on: ERCC3 R109X HMLE HRAS-V12 tumors; assay: Mouse xenograft model, ERCC3 R109X mutant tumors; type: in vivo, athymic nude mice
Description: (§3) To assess the effect of the ERCC3 R109X mutation on Irolfulven sensitivity in vivo, a tumor xenograft system was generated and used. As described above, ERCC3 WT and ERCC3-mutant (R109X) cells were made in an HMLE HRAS-V12 background. These cells were injected into the flanks of athymic nude mice. The resultant tumors were allowed to grow to a size of about 100 mm^3. Treatment was then started. Either a vehicle control or Irofulven (at a dose of either 3.5 mg/kg or 7 mg/kg) was injected intraperitoneally (IP) daily for 5 consecutive days (the treatment “on” time), followed by a period of 16 days of treatment “off” time—making one 21-day cycle. Treatment cycles were then repeated. This treatment regimen was similar to that employed in several reported human clinical trials of Irofulven. The size of the tumors was measured weekly. […] In the ERCC3 WT xenograft group the average tumor size at treatment initiation was 97.7 mm^3 (74.6-120.3 mm^3). In the ERCC3 R109X xenograft group the average tumor size at treatment initiation was 172.8 mm^3 (101.8-238.6 mm^3). […] Additional experiments are underway to further validate these preliminary findings.

[4] = tested on: ERCC3 WT HMLE HRAS-V12 tumors; assay: Mouse xenograft model, ERCC3 WT tumors; type: in vivo, athymic nude mice; conditions: 3.5 mg/kg or 7 mg/kg IP daily for 5 days per 21-day cycle
Description: as §3

[5] = tested on: HMLE+/R109X cells vs HMLE+/+ cells; assay: Cell viability after Irofulven, ERCC3 WT vs R109X heterozygous HMLE cells; type: cell-based, human; conditions: 72 hours, increasing doses
Description: as §1, §2

[6] = tested on: parental HMLE cells; assay: Cell viability after IlludinS, parental mammary epithelial cells; type: cell-based, human; conditions: 2 ng/ml IlludinS, 72 hours
Description: (§4) Overexpression of ERCC3 mutant constructs […] physiological levels of protein in a germline heterozygous mutation state within cells. Therefore, using CRISPR/Cas9, we engineered several heterozygous mutations in the mammary epithelial cell line HMLE that mimic the site of the originally discovered recurrent mutation in breast cancer individuals (Table 3, FIG. 4).
as §1

[7] = tested on: CRISPR edited HMLE cell lines (ERCC3 heterozygous mutants); assay: Cell viability after IlludinS, CRISPR/Cas9 edited ERCC3 heterozygous mutant cells; type: cell-based, human
Description: as §4, §1

[8] = tested on: XPCS2BA cells stably overexpressing ERCC3 WT; assay: Cell viability after IlludinS, cells overexpressing wild-type ERCC3 (CellTiter-Glo); type: cell-based, human
Description: (§5) To understand whether this variant has a deleterious effect on the gene function, we carried out a series of in vitro functional assays. Using a previously well characterized ERCC3 deficient cell line derived from an XP/CS patient (7), phenotype rescue after DNA damage was assessed by cell viability assay. […] Similarly, following UVC irradiation at a dose of 10 J/m^2, 72 hours post-exposure, 42% of the R109X cells survived compared to 63% of WT cells (P<0.0001). At a dose of […], these numbers reduced more drastically for the mutant, showing the same trend as the IlludinS exposure experiment. (FIG. 2D).
as §1

[9] = tested on: γ-H2AX in HMLE control and ERCC3 CRISPR edited cell lines; type: cell-based, human; conditions: 8 ng/ml IlludinS for 1 h; ERCC3 CRISPR mutants vs wild type, P<0.05
Description: To assess the induction and removal of phosphorylated H2AX in response to DNA damage we performed immunostaining and flow cytometric analysis of γ-H2AX positive cells following treatment with IlludinS.
For flow cytometric analysis, 24 h after seeding, cells were either left untreated or were treated with 8 ng/ml IlludinS for 1 h. Treated cells were subsequently washed with PBS and supplemented with drug-free medium. The cells were harvested at different time points after treatment and fixed with 4% PFA for 10 min at RT. Cells were quickly chilled on ice and ice-cold MeOH was added to a final concentration of 90%. The cells were incubated on ice for 30 min and stored at −20° C. For immunostaining the cells were washed twice with PBS/0.5% BSA and incubated with anti phospho-Histone H2A.X (Ser139) Antibody (1:250; Cell Signaling Technology) for 1 h at RT, washed again and incubated with Alexa-488 conjugated secondary antibody for 45 min at RT. For each condition 20.000 cells were recorded and data from two replicate experiments was analyzed using the FlowJo software (V10.1).

[10] = tested on: XPCS2BA parental cell line; assay: Cell viability after IlludinS, parental ERCC3-deficient cell line (CellTiter-Glo); type: cell-based, human
Description: as §5, §1

[11] = tested on: XPCS2BA cells stably overexpressing ERCC3 R109X; assay: Cell viability after IlludinS, cells overexpressing the ERCC3 R109X mutant (CellTiter-Glo); type: cell-based, human
Description: as §5, §1

SMILES: CC1=C(CO)C2=C(C)C3(CC3)[C@@](C)(O)C(=O)C2=C1 [Irofulven, 6-hydroxymethylacylfulvene]
- sensitivity to Irofulven (inhibition of cell viability) vs ERCC3 WT cells [1]: much more sensitive
- ERCC3 expression (relative transcript level) [2]: upregulated
- tumor growth ([3]; 3.5 mg/kg or 7 mg/kg IP daily for 5 days per 21-day cycle): significant reduction
- sensitivity to tumor inhibitory effects compared to ERCC3 WT tumors ([3]; preliminary studies): may have been more sensitive
- tumor growth [4]: significant reduction
- sensitivity to Irofulven (inhibition of cell viability) vs ERCC3 WT cells [5]: much more sensitive

SMILES: CC1=C2C(=C[C@@](C)(CO)[C@@H]2O)C(=O)[C@](C)(O)C12CC2 [IlludinS, Illudin S]
- cell survival [6]: all the parental HMLE cells survived
- cell survival ([7]; 2 ng/ml IlludinS, 72 hours, CRISPR edited HMLE, P<0.0001): significantly reduced survival
- relative cell viability ([7]; 72 hours after exposure to IlludinS, ERCC3 CRISPR clones): substantial reduction in relative cell viability
- response to IlludinS after stable overexpression of WT ERCC3 (rescue) ([7]; ERCC3 CRISPR cell lines re-expressing WT ERCC3): same response to IlludinS as the WT HMLE cell line
- cells survived ([8]; 2 ng/ml IlludinS, 72 hours): 77%
- cell survival ([8]; 4 ng/ml IlludinS): most of the WT cells survived
- reduction in γ-H2AX after DNA damage [9]: significantly lower
- cells survived ([10]; 2 ng/ml IlludinS, 72 hours, XPCS2BA): 3%
- cell death ([10]; higher doses of IlludinS, untransfected cells): all died
- cells survived ([11]; 2 ng/ml IlludinS, 72 hours, R109X overexpressing XPCS2BA): 42%
- cell death compared to ERCC3 WT ([11]; increasing doses of IlludinS, R109X overexpressing cells): significantly higher cell death
